Assay results as given in PubChem BioAssay (NCI).
Where “and” joins values, the source holds several entries; their conditions need not be identical. Equal entries are not always repeated.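 Results reflect a 48-hour exposure of cells in 96-well plates to compound at five concentrations. GI50 is the concentration that inhibits growth by half. At the TGI there is no net growth.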

Experiments:
Experiment in all cases: DTP human tumour cell line panel, 48 h
[1] = system: M19-MEL melanoma
[2] = system: NCI-H226 lung
[3] = system: SNB-75 CNS
[4] = system: XF 498 CNS
[5] = system: BT-549 breast
[6] = system: HS 578T breast
[7] = system: MDA-MB-435
[8] = system: NCI/ADR-RES ovarian
[9] = system: RPMI-8226 leukemia
[10] = system: T-47D breast

Row | Compound | TGI [1] | TGI [2] | TGI [3] | TGI [4] | GI50 [5] | TGI [5] | GI50 [6] | TGI [6] | GI50 [7] | TGI [7] | GI50 [2] | GI50 [8] | TGI [8] | GI50 [9] | TGI [9] | GI50 [3] | GI50 [10] | TGI [10] | GI50 [1] | GI50 [4]
1 | Cc1ccc(Cn2c(C)nc3c2C(=O)c2ccccc2C3=O)cc1 | 21.1 µM | 33.7 µM | 36.3 µM | 47.6 µM |  |  |  |  |  |  |  |  |  |  |  |  |  |  |  | 
2 | O=C(c1ccc(F)c(F)c1Nc1ccc(I)cc1F)N1CC(O)([C@@H]2CCCCN2)C1 |  | 23.3 µM and > 10 µM | 16 µM and > 10 µM |  | 7.52 µM and > 6.99 µM | 22 µM and > 10 µM | 5.05 µM and > 6.42 µM | 29.3 µM and > 10 µM | < 10 nM and 9.43 nM | 15.1 µM and > 10 µM | 1.91 µM and 1.24 µM | 6.56 µM and > 7.36 µM | 21.5 µM and > 10 µM | 0.992 µM and 3.1 µM | 18.2 µM and > 10 µM | 2850 nM and 574 nM | 9.05 µM and > 10 µM | 23.1 µM and > 10 µM |  | 
3 | O=C(Nc1cc(Cl)ccc1Cl)c1cc2cccc(Cl)c2oc1=O | > 100 µM |  | > 100 µM | > 100 µM |  |  |  |  |  |  |  |  |  |  | > 100 µM |  |  |  |  | 
4 | CS(=O)(=O)CCCn1c(=O)c(Oc2ccc(F)cc2F)cc2cnc(NC3CCOCC3)nc21 |  | > 25 µM | > 25 µM |  | > 25 µM | > 25 µM | > 25 µM | > 25 µM | > 25000 nM | > 25 µM | > 25 µM | > 25 µM | > 25 µM | > 25 µM | > 25 µM | > 25000 nM | > 25 µM | > 25 µM |  | 
5 | Cc1ccc(Cl)cc1Nc1nc(C(F)(F)F)ccc1C(=O)N1CCN(c2cccc(Cl)c2)CC1 |  | > 100 µM | > 100 µM |  | > 100 µM | > 100 µM | 47.9 µM | > 100 µM | > 100000 nM | > 100 µM | > 100 µM | > 100 µM | > 100 µM | 33.2 µM | > 100 µM | 73800 nM | 37.6 µM | > 100 µM |  | 
6 | Cc1ccc(NC(=O)C2C(=O)N(c3ccc(C)c(C)c3)C(=O)C2N=N)cc1C (stereo unspecified) | > 100 µM | > 100 µM | > 100 µM | > 100 µM |  |  |  |  |  |  |  |  |  |  |  |  |  |  |  | 
7 | COc1cc(-c2nn(-c3cccc(NC(=O)Nc4ccc(Cl)c(Cl)c4)c3)cc2-c2ccncc2)ccc1Cl |  | > 50 µM | 5.17 µM |  | 1.68 µM | 27.6 µM | 1.43 µM | > 50 µM | 938 nM | 2.39 µM | 1.35 µM | 0.99 µM | 4.67 µM | 0.388 µM | 3.26 µM | 1050 nM | 1.42 µM | > 50 µM |  | 
8 | CCCCCCC[CH2][Sn]1([CH2]CCCCCCC)[O]C(=O)c2cccnc2[S]1 | > 100 µM | > 100 µM | > 100 µM | > 100 µM |  |  |  |  |  |  | > 100 µM |  |  | > 100 µM | > 100 µM | > 100000 nM |  |  | > 100 µM | 30.8 µM
9 | O=C(NCCCCN=c1cccccc1NCCCCNC(=O)OCc1ccccc1)OCc1ccccc1 | 39.3 µM | 32.1 µM | 39.6 µM | 18.6 µM |  |  |  |  |  |  |  |  |  |  | 32.8 µM |  |  |  |  | 
10 | O=C(c1ccc(Cl)cc1)c1cnc(Nc2ccccc2Cl)s1 | > 100 µM | > 64.3 µM | 39.2 µM |  |  | 51.2 µM |  | 68.8 µM |  | > 100 µM |  |  |  |  | > 100 µM |  |  | 47.9 µM |  | 
11 | Cc1c(Cl)cccc1N1C(=O)C(Cl)=C(Cl)C1=O | > 100 µM | > 100 µM | > 100 µM | > 100 µM |  |  |  |  |  |  |  |  |  |  | > 89.8 µM |  |  |  |  | 
12 | C[C@H]1NC(=O)C2CCCCN2C(=O)CN(C)C(=O)CNC(=O)C2CCCCN2C(=O)[C@@H](NC(=O)c2nc3ccccc3cc2O)[C@@H](C)NC(=O)C2CCCCN2C(=O)CN(C)C(=O)CNC(=O)[C@@H]2CCCCN2C(=O)C1NC(=O)c1nc2ccccc2cc1O (stereo partly specified) | 0.56 µM | 0.383 µM | 0.39 µM |  |  |  |  |  |  |  |  |  |  |  | 0.764 µM |  |  |  |  | 
13 | O=C(CC(O)(C(F)(F)F)C(F)(F)F)c1cc(CC(=O)C(O)(C(F)(F)F)C(F)(F)F)cc(CC(=O)C(O)(C(F)(F)F)C(F)(F)F)c1 |  | > 6.85 µM | 6.73 µM |  |  | 4.93 µM |  | > 10 µM |  | > 4.25 µM |  |  | > 6.65 µM |  | > 10 µM |  |  | 4.26 µM |  | 
14 | O=C(O)[C@H](NS(=O)(=O)c1ccc2ccccc2c1)c1ccccc1 | > 100 µM |  | > 100 µM | > 100 µM |  |  |  |  |  |  |  |  |  |  | > 100 µM |  |  |  |  | 
15 | COC1C(O)=C2C(=O)O/C(C)=C/C=C/C=C/C=C\CC(c3ccccc3)NC(=O)\C=C/C=C\C=C\C=C\[C@@]2(C)[C@@H]1O (stereo partly specified) | 0.273 µM | 0.273 µM | 0.0503 µM | 0.304 µM |  | 0.0201 µM |  | 0.0395 µM |  | 0.044 µM |  |  |  |  | 0.0445 µM |  |  | 0.158 µM |  | 
16 | CCc1cccc(C)c1NC(=O)C(=O)Cc1nc2ccccc2o1 | > 100 µM | > 100 µM |  | > 100 µM |  |  |  |  |  |  |  |  |  |  | > 100 µM |  |  |  |  | 
17 | CCOC(=O)NC(=O)c1cn(CCOC(=O)NCCCCCCNC(=O)OCCn2cc(C(=O)NC(=O)OCC)c(=O)[nH]c2=O)c(=O)[nH]c1=O | > 100 µM | > 100 µM | > 100 µM |  |  |  |  |  |  |  |  |  |  |  | > 100 µM |  |  |  |  | 
18 | Nc1c(C(=O)Nc2cccc(Br)c2)sc2nc3c(cc12)C(=O)CCC3 |  | > 100 µM | > 52.2 µM |  | 3.1 µM | > 100 µM | 0.597 µM | 83.5 µM | 91.5 nM | 0.348 µM | 16.8 µM | 0.475 µM | > 100 µM | > 49.9 µM | > 100 µM | 486 nM | 2.13 µM | > 100 µM |  | 
19 | CCOc1ccc(N2C(=O)/C(=C/c3ccc(N(CCC#N)CCC#N)cc3)N=C2c2cc([N+](=O)[O-])ccc2Cl)cc1 | 66.5 µM | > 100 µM | > 100 µM |  |  |  |  |  |  |  |  |  |  |  | > 100 µM |  |  |  |  | 
20 | CCCCCCNC(=O)c1nc(-c2ccccc2)oc1Cc1ccc(OP(=O)(O)O)cc1 |  | 33.5 µM | 29.2 µM |  | 16.8 µM | 32.7 µM | 18.7 µM | 54.8 µM | 16400 nM | 30.5 µM | 17 µM | 20.3 µM | 42 µM | 20.4 µM | 49 µM | 13100 nM | 16.5 µM | 30.8 µM |  | 
21 | CN(C)c1c([O-])c(=[N+](C)C)c1=O |  | > 100 µM | > 100 µM | > 100 µM |  |  |  |  |  |  |  |  |  |  |  |  |  |  |  | 
